In assay [1] the test system is COVID-19. To be noted: hospitalized COVID-19 patients; cited from earlier work.
The test system of assay [2] is SARS-CoV-2 mimics. The assay is described as follows: In vivo clearance of the SARS-CoV-2 mimicking virus by nanodecoys in mice. Also on record: species or system CD1 mice. To be noted: mouse.

This is an account of results in US20230218746A1, “COMPOSITIONS AND METHODS RELATING TO ANTIVIRAL THERAPEUTICS” (priority 2020, published 2023).

For the molecule `CCN(CCO)CCCC(C)Nc1ccnc2cc(Cl)ccc12` (stereo not drawn) [hydroxychloroquine], the “effect on overall mortality, necessity for mechanical ventilation, and length of hospital stay” value in assay [1] was “little or no effect”.
Take lopinavir/ritonavir: the “effect on overall mortality, necessity for mechanical ventilation, and length of hospital stay” value in assay [1] was “little or no effect”.
Consider “rACE2: free recombinant ACE2 protein, same amount of ACE2 as on the nanodecoys”, for which, in assay [2], the “amounts of SARS-CoV-2 mimics in lungs (ex vivo imaging)” value was “ineffective”.
